Experiment [1] in a line: Inhibition of [125I] Ang2 binding to AT1 receptor in Sprague-Dawley rat VSMC after 150 mins by gamma-counter method.
Experiment [2] has as its system Rattus norvegicus. Briefly: […] activity in spontaneous hypertensive rat assessed as reduction in blood pressure at 5 to 10 mg/kg, po. It is filed as functional, organism-based.
The subject of experiment [3] is Rattus norvegicus. In words: […] activity in spontaneous hypertensive rat assessed as maximum reducing response of mean blood pressure at 10 mg/kg, po. It is filed as functional.
Experiment [4] deals with Rattus norvegicus. Briefly: […] activity in spontaneous hypertensive rat at 10 mg/kg, po after 24 hrs. It is filed as functional, organism-based.
In experiment [5] the test system is Rattus norvegicus. Briefly: […] activity in spontaneous hypertensive rat assessed as reduction in blood pressure at 10 mg/kg, po. It is filed as functional, organism-based.

Each structure is given as a SMILES string. The source made the active and inactive calls. The calls are words filed in the database; no cut-off is given here.

In experiment [1], `CCc1nc2c(C)cc(C(=O)NCCc3ccccc3)cc2n1Cc1cccc2c1ccn2-c1ccccc1C(=O)O` yielded an IC50 of 4.8 nM and an inhibitory constant (Ki) of 3.5 nM.

In the case of `CCc1nc2c(C)cc(C(=O)NCCc3ccccc3)cc2n1Cc1ccc2c(ccn2-c2ccccc2C(=O)O)c1`, in experiment [1], the 50% inhibitory concentration (IC50) came out at 12.1 nM and the affinity corresponds to a Ki of 8.8 nM.

As for `CCCCc1nc2c(C)cc(C(=O)NCCc3ccccc3)cc2n1Cc1ccc2c(ccn2-c2ccccc2C(=O)O)c1`, in experiment [1], the 50% inhibitory concentration (IC50) amounted to 3.7 nM and the affinity corresponds to a Ki of 2.7 nM. The outcome in the experiment on Rattus norvegicus [2] was Active.

Consider `CCCc1nc2c(C)cc(C(=O)NCCc3ccccc3)cc2n1Cc1ccc2c(ccn2-c2ccccc2C(=O)O)c1`, for which the Activity in the experiment on Rattus norvegicus [3] was found to be 57.9 mmHg. In experiment [1], this compound showed an IC50 of 2.6 nM and a Ki of 1.9 nM. Besides, in the experiment on Rattus norvegicus [2], the result was Active. Further, the result in the experiment on Rattus norvegicus [4] was Active.

Take `CCCCc1nc(Cl)c(CO)n1Cc1ccc(-c2ccccc2-c2nnn[nH]2)cc1` [LOSARTAN]: in experiment [1], the IC50 turned out to be 14.6 nM and affinity was put at a Ki of 10.5 nM. The outcome in the experiment with Rattus norvegicus [5] was Active.

`CCCCc1nc2c(C)cc(C(=O)NCCc3ccccc3)cc2n1Cc1cccc2c1ccn2-c1ccccc1C(=O)O`: in experiment [1], the IC50 came out at 8.5 nM and the inhibitory constant (Ki) came out at 6.2 nM.

Consider `CCCc1nc2c(C)cc(C(=O)NCCc3ccccc3)cc2n1Cc1cccc2c1ccn2-c1ccccc1C(=O)O`, for which the Activity with Rattus norvegicus [3] is 57.6 mmHg. In experiment [1], this compound returned a concentration for half-maximal inhibition (IC50) of 2.3 nM and an inhibition constant (Ki) of 1.7 nM. In addition, in the experiment on Rattus norvegicus [2], the outcome was Active. Besides, the result in the experiment on Rattus norvegicus [4] was Active.

The term IC50 denotes the concentration needed to halve the response being measured. High values mean a need for much substance, low ones inhibition by little substance. As a reminder, the Ki is the equilibrium dissociation constant of an inhibitor or competing ligand from its target. Higher therefore signals a looser hold on the target.
